According to US10473647B1, “Peptides for use in treatment and diagnosis of type 1 diabetes” (ImmusanT, Inc., priority 2014, dated 2019):
No end group written: not given here.

Key:
Type in all cases: cell-based, human
undepleted whole blood [1] = assay: Whole blood cytokine assay, IP-10, undepleted blood, number of subjects with >=1.25 fold over medium (Example 2); conditions: 24 h, peptides 20 ug/mL, pools 4 ug/mL, NEX-01/Nexgen POOL 25 uM, CEFT 1 ug/mL
Method: (§1) The depleted blood as well as the remaining undepleted whole blood was then utilized in whole blood cytokine release assays. T-cell cytokine responses were assessed for reactivity to pools of 17mer peptides encompassing all unique 12mer amino-acid sequences derived from pancreatic islet antigens commonly recognized by autoantibodies in T1D: insulin, glutamic decarboxylase-65 (GAD65), and insulinoma-associated antigen (IA)-2 as provided in Table 13A and Table 13B.
(§2) Fresh heparinized blood was incubated with peptide. Concentrations of individual islet-autoantigen peptides were 20 μg/mL and constituent peptides in islet-autoantigen pools were 4 ug/mL. Control MHC class II peptide mix CEFT was used at 1 μg/mL. Gliadin peptide pools were added to whole blood assays at 25 μM. Whole blood assays were incubated for 24 h at 37° C. in 5% CO2. Plasma was separated from blood after centrifugation at 500×g for 10 minutes at room temperature and then transferred to a corresponding well in a “mirror image” sterile 96-well plate. and frozen at −80° C. until use. Multiplex bead-based cytokine assays (MAGPix) were performed according to manufacturer's instructions on thawed plasma. Concentrations of interferon (IFN)-γ-induced protein-10 (IP-10), interleukin (IL)-2 and IFN-γ. Table 14 is a summary of the results for the whole blood cytokine assays which expresses the data in the number of subjects that are positive for ≥1.25 fold production of cytokine over cells incubated with medium only (background).

[2] = system: CD8+ T cell depleted blood; assay: Whole blood cytokine assay, IL-2, CD8+ T cell depleted blood (Example 2); conditions: T1D Subjects (n of 6), 24 h, peptides 20 ug/mL, pools 4 ug/mL, NEX-01/Nexgen POOL 25 uM, CEFT 1 ug/mL
Method: (§3) Depletion of human CD4+ and CD8+ T cells directly from whole blood, using CD4 and CD8 Dynabeads respectively (Dynabeads Human CD4, Life Technologies, #11145D; Dynabeads Human CD8, Life Technologies, #11145D), was done according to the manufacturer's protocol. Briefly, the Dynabeads were resuspended and the desired volume was transferred to a 15 Ml tube. The calculation of the volume of beads added to whole blood was 2×10^6 CD4 beads (25 μL) and 4×10^6 CD8 beads (50 μL) per Ml of whole blood. The beads were first washed with 3 Ml PBS, vortexed and placed on the magnet for 1 minute. Supernatant was discarded and beads were removed from the magnet. Whole blood was then added to the beads at the volume calculated for the concentration of beads in the tubes. The tubes containing whole blood and Dynabeads were then incubated 45 minutes at 4° C. on a continuous rocker.
(§4) Tubes were then placed into the magnet for 2 minutes. The whole blood supernatant was then transferred to a new tube for use in 24-hour Whole Blood Assay or for Flow Cytometric Analysis. Magnetic beads were discarded.
as §1, §2

[3] = system: CD4+ T cell depleted blood; assay: Whole blood cytokine assay, IFNg, CD4+ T cell depleted blood (Example 2); conditions: T1D Subjects (n of 6), 24 h, peptides 20 ug/mL, pools 4 ug/mL, NEX-01/Nexgen POOL 25 uM, CEFT 1 ug/mL
Method: as §3, §4, §1, §2

[4] = system: CD4+ T cell depleted blood; assay: Whole blood cytokine assay, IP-10, CD4+ T cell depleted blood (Example 2); conditions: T1D Subjects (n of 6), 24 h, peptides 20 ug/mL, pools 4 ug/mL, NEX-01/Nexgen POOL 25 uM, CEFT 1 ug/mL
Method: as §3, §4, §1, §2

[5] = system: CD8+ T cell depleted blood; assay: Whole blood cytokine assay, IFNg, CD8+ T cell depleted blood (Example 2); conditions: T1D Subjects (n of 6), 24 h, peptides 20 ug/mL, pools 4 ug/mL, NEX-01/Nexgen POOL 25 uM, CEFT 1 ug/mL
Method: as §3, §4, §1, §2

[6] = system: CD8+ T cell depleted blood; assay: Whole blood cytokine assay, IP-10, CD8+ T cell depleted blood (Example 2); conditions: T1D Subjects (n of 6), 24 h, peptides 20 ug/mL, pools 4 ug/mL, NEX-01/Nexgen POOL 25 uM, CEFT 1 ug/mL
Method: as §3, §4, §1, §2

undepleted whole blood [7] = assay: Whole blood cytokine assay, IL-2, undepleted blood, number of subjects with >=1.25 fold over medium (Example 2); conditions: 24 h, peptides 20 ug/mL, pools 4 ug/mL, NEX-01/Nexgen POOL 25 uM, CEFT 1 ug/mL
Method: as §1, §2

undepleted whole blood [8] = assay: Whole blood cytokine assay, IFNg, undepleted blood, number of subjects with >=1.25 fold over medium (Example 2); conditions: 24 h, peptides 20 ug/mL, pools 4 ug/mL, NEX-01/Nexgen POOL 25 uM, CEFT 1 ug/mL
Method: as §1, §2

[9] = Healthy Subjects (n of 4), whole blood
[10] = T1D Subjects (n of 6), Undepleted WB

Substance	Fold Change IP-10, number of subjects positive for ≥1.25 fold production of cytokine over medium only (undepleted whole blood [1]; [9])	Fold Change IP-10, number of subjects positive for ≥1.25 fold production of cytokine over medium only (undepleted whole blood [1]; [10])	Fold Change IL-2, number of subjects positive for ≥1.25 fold production of cytokine over medium only [2]	Fold Change IFNg, number of subjects positive for ≥1.25 fold production of cytokine over medium only [3]	Fold Change IP-10, number of subjects positive for ≥1.25 fold production of cytokine over medium only [4]	Fold Change IFNg, number of subjects positive for ≥1.25 fold production of cytokine over medium only [5]	Fold Change IP-10, number of subjects positive for ≥1.25 fold production of cytokine over medium only [6]	Fold Change IL-2, number of subjects positive for ≥1.25 fold production of cytokine over medium only (undepleted whole blood [7]; [10])	Fold Change IFNg, number of subjects positive for ≥1.25 fold production of cytokine over medium only (undepleted whole blood [8]; [9])	Fold Change IFNg, number of subjects positive for ≥1.25 fold production of cytokine over medium only (undepleted whole blood [8]; [10])	Fold Change IL-2, number of subjects positive for ≥1.25 fold production of cytokine over medium only (undepleted whole blood [7]; [9])
20150-01: peptide tested in Example 2 whole blood cytokine assays (Tables 13A/13B, 14) (FYTPKTRREAEDLQGSL)	2/4	4/6	1/6	–	–	–	–	–	–	–	–
20150-05-W1: peptide tested in Example 2 whole blood cytokine assays (Tables 13A/13B, 14) (REAEDLQVGQVELGGGP)	3/4	4/6	1/6	1/6	3/6	1/6	5/6	–	–	–	–
20150-11-W1 (NQHLCGSHLVEALYLVC)	2/4	2/6	–	1/6	–	1/6	2/6	1/6	–	–	–
20150-15 (LQGSLQPLALEGSLQKR) [Peptide 20150-15]	–	–	1/6	1/6	–	2/6	–	–	–	–	–
20150-19 (EDLQVGQVELGGGPGAG-NH2) [Peptide 20150-19]	1/4	–	1/6	2/6	–	3/6	–	–	1/4	–	–
20150-24: peptide tested in Example 2 whole blood cytokine assays (Tables 13A/13B, 14) (PLLALLALWGPDPAAAF)	4/4	6/6	6/6	1/6	3/6	5/6	5/6	4/6	1/4	4/6	1/4
